Measured values from ChEMBL document CHEMBL1201862, “PubChem BioAssay data set” (2004).
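Five concentrations, 48 hours, 96-well plates. Abbreviation: GI50, concentration required for 50% inhibition of growth.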 Active and inactive are the calls of the source. No stated cut-off is given here; in the data, active = GI50 up to about 1.1 µM and inactive = higher.

Columns and labels:
Assay in all cases: NCI anticancer screen, dose series, 48 h
SF-295 = system: SF-295
CAKI-1 = system: CAKI-1
UO-31 = system: UO-31
COLO 205 = system: COLO 205
SW-620 = system: SW-620
K562 = system: K562
LOX IMVI = system: LOX IMVI
HCT-15 = system: HCT-15
UACC-62 = system: UACC-62
NCI-H460 = system: NCI-H460
NCI-H226 = system: NCI-H226
HOP-92 = system: HOP-92
HL-60 = system: HL-60
SNB-75 = system: SNB-75
SK-MEL-2 = system: SK-MEL-2
786-0 = system: 786-0
Malme-3M = system: Malme-3M
HOP-62 = system: HOP-62

Structure (SMILES)	GI50 (SF-295)	GI50 (CAKI-1)	GI50 (UO-31)	GI50 (COLO 205)	GI50 (SW-620)	GI50 (K562)	GI50 (LOX IMVI)	GI50 (HCT-15)	GI50 (UACC-62)	GI50 (NCI-H460)	GI50 (NCI-H226)	GI50 (HOP-92)	GI50 (HL-60)	GI50 (SNB-75)	GI50 (SK-MEL-2)	GI50 (786-0)	GI50 (Malme-3M)	GI50 (HOP-62)
N/C(=C\c1ccc(/C=C(\NC(=O)c2ccccc2)c2nc3c([nH]2)C(=O)c2ccccc2C3=O)cc1)c1nc2c([nH]1)C(=O)c1ccccc1C2=O	16.5 µM (inactive)	14.3 µM (inactive)	4.84 µM (inactive)	14.8 µM (inactive)	20.4 µM (inactive)	14.9 µM (inactive)	18.1 µM (inactive)	13.9 µM	11.5 µM (inactive)	17.5 µM (inactive)	11.5 µM (inactive)	7.83 µM (inactive)	10 µM (inactive)	3.65 µM (inactive)	–	–	–	–
O=C1C(=Cc2cccs2)C(=O)N(CCc2ccccc2)S(=O)(=O)N1CCc1ccccc1	> 50 µM (inactive)	–	> 50 µM (inactive)	> 50 µM (inactive)	> 50 µM (inactive)	32.7 µM (inactive)	28.9 µM (inactive)	> 50 µM	> 50 µM (inactive)	> 50 µM (inactive)	> 50 µM (inactive)	> 50 µM (inactive)	14 µM (inactive)	> 50 µM (inactive)	> 50 µM (inactive)	> 50 µM (inactive)	> 50 µM (inactive)	–
COC1OC(C)C2OC(C)(C)OC2C1OC(C)=O (stereo not drawn)	> 100 µM (inactive)	> 100 µM (inactive)	–	> 100 µM (inactive)	> 100 µM (inactive)	> 100 µM (inactive)	> 100 µM (inactive)	> 100 µM	> 100 µM (inactive)	> 100 µM (inactive)	> 100 µM (inactive)	> 100 µM (inactive)	> 100 µM (inactive)	–	–	> 100 µM (inactive)	> 100 µM (inactive)	> 100 µM (inactive)
Cc1cccc(/N=C/c2ccc(N(CCC#N)S(=O)(=O)c3ccccc3)cc2C)c1	> 100 µM (inactive)	> 100 µM (inactive)	13.3 µM (inactive)	> 100 µM (inactive)	> 100 µM (inactive)	34.5 µM (inactive)	17.6 µM (inactive)	98.6 µM	26.1 µM (inactive)	–	20.7 µM (inactive)	33.3 µM (inactive)	21.9 µM (inactive)	67 µM (inactive)	> 100 µM (inactive)	> 100 µM (inactive)	> 100 µM (inactive)	> 100 µM (inactive)
COc1ccc(/N=N/c2c(-c3ccccc3)nn(C(=O)CC(=O)Nc3cccc(Cl)c3)c2-c2ccccc2)cc1	26.9 µM (inactive)	34.5 µM (inactive)	5.11 µM (inactive)	> 100 µM (inactive)	> 100 µM (inactive)	85.7 µM (inactive)	> 100 µM (inactive)	> 100 µM	> 100 µM (inactive)	49.3 µM (inactive)	4.82 µM (inactive)	40.6 µM (inactive)	> 100 µM (inactive)	6.08 µM (inactive)	> 100 µM (inactive)	> 100 µM (inactive)	> 100 µM (inactive)	24.2 µM (inactive)
Cc1ccc(S(=O)(=O)C(C#N)c2nc3ccccc3nc2-n2cccn2)cc1 (stereo not drawn)	> 100 µM (inactive)	–	> 100 µM (inactive)	> 100 µM (inactive)	–	> 100 µM (inactive)	–	> 100 µM	–	> 100 µM (inactive)	> 100 µM (inactive)	> 100 µM (inactive)	> 100 µM (inactive)	> 100 µM (inactive)	> 100 µM (inactive)	> 100 µM (inactive)	> 100 µM (inactive)	–
CC(=O)OC[C@@H]1[C@H]2CC(=O)O[C@H]2C[C@H]1OC(C)=O	> 100 µM (inactive)	> 100 µM (inactive)	> 100 µM (inactive)	24.7 µM (inactive)	> 100 µM (inactive)	–	> 100 µM (inactive)	> 100 µM	> 100 µM (inactive)	> 100 µM (inactive)	–	> 100 µM (inactive)	> 100 µM (inactive)	> 100 µM (inactive)	–	> 100 µM (inactive)	> 100 µM (inactive)	> 100 µM (inactive)
C=CCC1(CN(C)C)CC/C(=C\c2ccc(Cl)cc2)C1=O (stereo not drawn)	35.5 µM (inactive)	> 100 µM (inactive)	41.5 µM (inactive)	27.2 µM (inactive)	26.9 µM (inactive)	26.9 µM (inactive)	23.8 µM (inactive)	25.1 µM	49.9 µM (inactive)	20.2 µM (inactive)	96.8 µM (inactive)	66.8 µM (inactive)	29.9 µM (inactive)	33 µM (inactive)	> 100 µM (inactive)	38.1 µM (inactive)	> 74.5 µM (inactive)	> 100 µM (inactive)
CN(C)CCNC(=O)c1cccc2cc3ccc4ccccc4c3nc12	0.0867 µM (active)	0.0413 µM (active)	0.0481 µM (active)	0.0414 µM (active)	0.0306 µM (active)	0.0653 µM (active)	0.0502 µM (active)	0.0684 µM	0.0776 µM (active)	0.0149 µM (active)	0.112 µM (active)	0.143 µM (active)	0.0336 µM (active)	0.131 µM (active)	0.203 µM (active)	0.0824 µM (active)	0.268 µM (active)	0.0957 µM (active)
CCCCCCCCCCOC(=O)NCCC	38.5 µM (inactive)	35.5 µM (inactive)	16.2 µM (inactive)	40.5 µM (inactive)	48.6 µM (inactive)	29.9 µM (inactive)	18.2 µM (inactive)	21 µM	38.5 µM (inactive)	25.8 µM (inactive)	–	11.6 µM (inactive)	13.9 µM (inactive)	49.2 µM (inactive)	16.7 µM (inactive)	28.1 µM (inactive)	21.4 µM (inactive)	–
O=C(CC1(O)C(=O)Nc2c(Cl)cc(Cl)cc21)c1ccc(F)cc1 (stereo not drawn)	34.7 µM (inactive)	92 µM (inactive)	42.1 µM (inactive)	19 µM (inactive)	43.7 µM (inactive)	–	24.7 µM (inactive)	30.6 µM	35.8 µM (inactive)	38.8 µM (inactive)	33.3 µM (inactive)	47.1 µM (inactive)	–	25.9 µM (inactive)	46.8 µM (inactive)	19.8 µM (inactive)	41.9 µM (inactive)	48 µM (inactive)
Cc1cc(C)nc(NS(=O)(=O)c2ccc(NC(=O)c3cccc4cc5ccccc5nc34)cc2)n1	30.1 µM (inactive)	50.9 µM (inactive)	53.8 µM (inactive)	39.4 µM (inactive)	32.7 µM (inactive)	24.5 µM (inactive)	22.9 µM (inactive)	21 µM	20 µM (inactive)	34 µM (inactive)	23.2 µM (inactive)	–	–	51.4 µM (inactive)	30.3 µM (inactive)	39.5 µM (inactive)	23.4 µM (inactive)	62.7 µM (inactive)
COC(=O)CCSC(=O)Nc1ccccc1Cl	> 100 µM (inactive)	> 100 µM (inactive)	> 100 µM (inactive)	> 100 µM (inactive)	> 100 µM (inactive)	> 100 µM (inactive)	> 100 µM (inactive)	> 100 µM	> 100 µM (inactive)	> 100 µM (inactive)	> 100 µM (inactive)	–	63.1 µM (inactive)	> 100 µM (inactive)	> 100 µM (inactive)	> 100 µM (inactive)	–	> 100 µM (inactive)
Cc1ccc(/C=N/NS(=O)(=O)c2ccccc2)cc1	74 µM (inactive)	> 100 µM (inactive)	> 100 µM (inactive)	> 100 µM (inactive)	> 100 µM (inactive)	> 100 µM (inactive)	> 100 µM (inactive)	> 100 µM	> 100 µM (inactive)	> 100 µM (inactive)	> 100 µM (inactive)	> 100 µM (inactive)	> 100 µM (inactive)	> 100 µM (inactive)	> 100 µM (inactive)	> 100 µM (inactive)	> 100 µM (inactive)	> 100 µM (inactive)
COC1(C)C(=O)N2C1N(C(=O)OCc1ccccc1)CC2(C)C (stereo not drawn)	> 100 µM (inactive)	–	> 100 µM (inactive)	> 100 µM (inactive)	> 100 µM (inactive)	> 100 µM (inactive)	> 100 µM (inactive)	> 100 µM	> 100 µM (inactive)	> 100 µM (inactive)	> 100 µM (inactive)	–	> 100 µM (inactive)	44.9 µM (inactive)	> 100 µM (inactive)	> 100 µM (inactive)	> 100 µM (inactive)	> 100 µM (inactive)
O=C(N/C(=C\c1cccc([N+](=O)[O-])c1)c1nc2c3c(ccc2[nH]1)C(=O)c1ccccc1C3=O)c1ccccc1	–	7.18 µM (inactive)	> 100 µM (inactive)	–	45.5 µM (inactive)	–	–	15 µM	55.2 µM (inactive)	24.7 µM (inactive)	14 µM (inactive)	32.4 µM (inactive)	–	58.6 µM (inactive)	35 µM (inactive)	26.1 µM (inactive)	40.7 µM (inactive)	37.8 µM (inactive)
COc1ccc(C(c2ccc(C(C)C)cc(OC)c2=O)c2ccc(C(C)C)cc(OC)c2=O)cc1	16.2 µM (inactive)	18.9 µM (inactive)	14.3 µM (inactive)	17.2 µM (inactive)	15.5 µM (inactive)	10.7 µM (inactive)	15.3 µM (inactive)	12.7 µM	14.8 µM (inactive)	14.6 µM (inactive)	18.1 µM (inactive)	13.6 µM (inactive)	12.2 µM (inactive)	19.6 µM (inactive)	15.9 µM (inactive)	16.6 µM (inactive)	16.5 µM (inactive)	21 µM (inactive)
